{"source": "patent US10561681B2", "about": "“Antimetastatic 2H-selenopheno[3,2-h]chromenes, synthesis thereof, and methods of using same agents” (Latvian Institute of Organic Synthesis, priority 2016, dated 2020)", "key": {"[1]": {"test": "Basal cytotoxicity test, Neutral Red Uptake (NRU) assay", "assay_type": "cell-based", "settings": "for LD50 at 24 h: mouse, po, acute oral LD50 calculated from 3T3 NRU IC50 by regression formula, read-out: Basal cytotoxicity Estimated* LD50; for IC50 at 24 h: normal mouse embryo fibroblasts, read-out: Cytotoxicity IC50, 3T3", "method_in_brief": "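Balb/c 3T3 fibroblasts (9000 cells/well) exposed 24 h to compounds at 1–1000 μg/ml in DMEM with 5% FBS. Viability by Neutral Red uptake (3 h, 0.05 mg/mL), absorbance at 540 nm relative to untreated cells; IC50 from concentration–response.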"}, "MG-22A (mouse hepatoma)": {"system": "MG-22A (mouse hepatoma)", "test": "In vitro cytotoxicity, MTT test", "assay_type": "cell-based", "settings": "MTT, 72 h, read-out: Cytotoxicity IC50, MG-22A", "method_in_brief": "(§1)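 72 h exposure, 37 °C/5% CO2; seeding 2-9·10^4 cells/mL depending on line. MTT 3 h in HEPES-buffered medium, DMSO solubilisation, A540. Untreated wells = control.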"}, "[2]": {"system": "A549 (human lung carcinoma)", "test": "In vitro cytotoxicity, MTT test", "assay_type": "cell-based", "settings": "Homo sapiens, A549, 72 h, MTT, 72 h; read-out: Cytotoxicity IC50, A549", "method_in_brief": "as §1"}, "CCL-8 (mouse sarcoma)": {"system": "CCL-8 (mouse sarcoma)", "test": "In vitro cytotoxicity, MTT test", "assay_type": "cell-based", "settings": "MTT, 72 h, read-out: Cytotoxicity IC50, CCL-8", "method_in_brief": "as §1"}, "[3]": {"system": "SH-SY5Y (human neuroblastoma)", "test": "In vitro cytotoxicity, MTT test", "assay_type": "cell-based", "settings": "Homo sapiens, SH-SY5Y, 72 h, MTT, read-out: Cytotoxicity IC50, SHSY5Y", "method_in_brief": "as §1"}, "[4]": {"system": "MCF-7 (human breast adenocarcinoma, estrogen-positive)", "test": "In vitro cytotoxicity, MTT test", "assay_type": "cell-based", "settings": "MCF7, MTT, 72 h, read-out: Cytotoxicity IC50, MCF-7", "method_in_brief": "as §1"}, "[5]": {"system": "MDA-MB-435s (human melanoma)", "test": "In vitro cytotoxicity, MTT test", "assay_type": "cell-based", "settings": "MTT, 72 h, read-out: Cytotoxicity IC50, MDA-MB-435s", "method_in_brief": "as §1"}, "[6]": {"system": "HepG2 (human hepatocellular carcinoma)", "test": "In vitro cytotoxicity, MTT test", "assay_type": "cell-based", "settings": "HepG2, MTT, 72 h, read-out: Cytotoxicity IC50, HepG2", "method_in_brief": "as §1"}, "[7]": {"system": "MES-SA (human uterus sarcoma)", "test": "In vitro cytotoxicity, MTT test", "assay_type": "cell-based", "settings": "MTT, 72 h, read-out: Cytotoxicity IC50, MES-SA", "method_in_brief": "as §1"}, "[8]": {"system": "HT-1080 (human fibrosarcoma)", "test": "In vitro cytotoxicity, MTT test", "assay_type": "cell-based", "settings": "HT-1080, MTT, 72 h, read-out: Cytotoxicity IC50, HT-1080", "method_in_brief": "as §1"}, "4T1 carcinoma cells": {"system": "4T1 carcinoma cells", "test": "4T1 model of lung metastasis (tail vein) in Balb/c mice", "assay_type": "in vivo, mouse", "settings": "for % of the total area occupied by metastases, % (control = 100) / % of the total area occupied by metastases, Mean ± SD: 20 mg/kg, days 1, 4, 7, 9, 11, 14", "procedure": "Compounds were administered s.c. at 1, 4, 7, 9, 11 and 14th days. 4T1 cells (10,000/0.1 ml PBS) were injected i.v. into syngeneic mice. The metastasis at day 16 are shown for each mouse, and averages are provided for illustration.\nBalb/c mice were injected with 100,000 4T1 […] cancer cells into the tail vein and treatment started 24 hr later with subcutaneous (s.c.), intraperitoneal (i.p.) injections or oral administration (p.o.) of compounds according to the following scheme: 1, 4, 7, 9, 11 and 14th days in dose 20 or 40 mg/kg. Compounds were dissolved in DMSO and the solution were diluted by water (DMSO final concentration <1%). Mice in the control group were similarly given doses of 0.1 mL of water with DMSO. Twenty-one days later, all mice were anesthetized with ketamine/xylazine and euthanized, the mice were sacrificed spleens were excised from the mice and weighed. In each experiment, mice were weighed twice weekly.\n(Lewis et al, Cancer Res, 2005, 65) Pulmonary metastases were enumerated by intra-tracheal injection of India ink (15% India Ink, 85% water, 3 drops NH4OH/100 ml). India ink injected lungs were washed in Feket's solution (300 ml 70% EtOH, 30 ml 37% formaldehyde, 5 ml glacial acetic acid) and then placed fresh Feket's solution overnight. […] White tumor nodules against a black lung background were measured."}}, "note": "Several values for one entry are separate records, joined by “and”; a condition that tells them apart may be missing. Equal entries are not always repeated. Marks after values point to notes of the source that are not given here.", "data": [{"molecule": "COC(=O)c1cc2ccc3c(Br)c(CN4CCN(C)CC4)[se]c3c2oc1=O", "note": "[Compound I-10, Methyl 7-bromo-8-((4-methylpiperazin-1-yl)methyl)-2-oxo-2H-selenopheno[3,2-h]chromene-3-carboxylate]", "values": [{"measurement": "LD50 at 24 h", "setting": "[1]", "value": "4300 µmol/kg and 2300 mg/kg"}, {"measurement": "IC50 at 24 h", "setting": "[1]", "value": "86 ± 5", "unit": "µM"}, {"measurement": "IC50", "setting": "MG-22A (mouse hepatoma)", "value": "64 ± 5", "unit": "µM"}, {"measurement": "IC50", "setting": "[2]", "value": "187 ± 10", "unit": "µM"}, {"measurement": "IC50", "setting": "CCL-8 (mouse sarcoma)", "value": "94 ± 7", "unit": "µM"}, {"measurement": "IC50", "setting": "[3]", "value": "> 117", "unit": "µM"}, {"measurement": "IC50", "setting": "[4]", "value": "150 ± 9", "unit": "µM"}, {"measurement": "IC50", "setting": "[5]", "value": "> 187", "unit": "µM"}, {"measurement": "IC50", "setting": "[6]", "value": "187 ± 10", "unit": "µM"}, {"measurement": "IC50", "setting": "[7]", "value": "> 187", "unit": "µM"}, {"measurement": "IC50", "setting": "[8]", "value": "170 ± 9", "unit": "µM"}, {"measurement": "Effect on development of splenomegaly", "setting": "4T1 carcinoma cells; 4T1 i.v.", "value": "does not affect the development of splenomegaly"}, {"measurement": "Spleen weight increase", "setting": "4T1 carcinoma cells; 4T1 i.v., dose not stated, control with tumor +147%", "value": 63, "unit": "%"}, {"measurement": "% of the total area occupied by metastases, % (control = 100)", "setting": "4T1 carcinoma cells; i.p.", "value": 86, "unit": "%"}, {"measurement": "% of the total area occupied by metastases, Mean ± SD", "setting": "4T1 carcinoma cells; i.p.", "value": "43 ± 40", "unit": "%"}, {"measurement": "% of the total area occupied by metastases, % (control = 100)", "setting": "4T1 carcinoma cells; p.o.", "value": "32** %"}, {"measurement": "% of the total area occupied by metastases, Mean ± SD", "setting": "4T1 carcinoma cells; p.o.", "value": "16 ± 18", "unit": "%"}, {"measurement": "% of the total area occupied by metastases, % (control = 100)", "setting": "4T1 carcinoma cells; s.c.", "value": "19* %"}, {"measurement": "% of the total area occupied by metastases, Mean ± SD", "setting": "4T1 carcinoma cells; s.c., control 50 ± 33", "value": "10 ± 29", "unit": "%"}]}, {"molecule": "O=C(O)c1cc2ccc3c(Br)c(C4(O)CCCCC4)[se]c3c2oc1=O", "note": "[Compound I-11, 7-Bromo-8-(1-hydroxycyclohexyl)-2-oxo-2H-selenopheno[3,2-h]chromene-3-carboxylic acid]", "values": [{"measurement": "LD50 at 24 h", "setting": "[1]", "value": "> 5800 µmol/kg and > 2730 mg/kg"}, {"measurement": "IC50 at 24 h", "setting": "[1]", "value": "> 213", "unit": "µM"}, {"measurement": "IC50", "setting": "MG-22A (mouse hepatoma)", "value": "> 122", "unit": "µM"}, {"measurement": "IC50", "setting": "[2]", "value": "> 213", "unit": "µM"}, {"measurement": "IC50", "setting": "CCL-8 (mouse sarcoma)", "value": "149 ± 9", "unit": "µM"}, {"measurement": "IC50", "setting": "[3]", "value": "> 117", "unit": "µM"}, {"measurement": "IC50", "setting": "[4]", "value": "213 ± 6", "unit": "µM"}, {"measurement": "IC50", "setting": "[5]", "value": "208 ± 13", "unit": "µM"}, {"measurement": "IC50", "setting": "[6]", "value": "> 213", "unit": "µM"}, {"measurement": "IC50", "setting": "[7]", "value": "206 ± 10", "unit": "µM"}, {"measurement": "IC50", "setting": "[8]", "value": "77 ± 5", "unit": "µM"}, {"measurement": "Prevention of formation of 4T1 carcinoma lung metastasis", "setting": "4T1 carcinoma cells; five mice per group", "value": 98, "unit": "%"}, {"measurement": "% of the total area occupied by metastases, % (control = 100)", "setting": "4T1 carcinoma cells; i.p.", "value": 62, "unit": "%"}, {"measurement": "% of the total area occupied by metastases, Mean ± SD", "setting": "4T1 carcinoma cells; i.p.", "value": "31 ± 41", "unit": "%"}, {"measurement": "% of the total area occupied by metastases, % (control = 100)", "setting": "4T1 carcinoma cells; p.o.", "value": "28** %"}, {"measurement": "% of the total area occupied by metastases, Mean ± SD", "setting": "4T1 carcinoma cells; p.o.", "value": "14 ± 31", "unit": "%"}, {"measurement": "% of the total area occupied by metastases, % (control = 100)", "setting": "4T1 carcinoma cells; s.c.", "value": "39** %"}, {"measurement": "% of the total area occupied by metastases, Mean ± SD", "setting": "4T1 carcinoma cells; s.c., control 50 ± 33", "value": "20 ± 30", "unit": "%"}]}]}
